Read-outs that look alike come from different tables or passages of the source.
Legend:
A549/OPNluc cells = test: WST assay for cell growth / cell viability; assay type: cell-based, human; conditions: 48±4 hours, WST-1, read-out: IC50 (concentration for 50% inhibition of cell growth)
Text: (§1) A reporter vector pOPN1-luc obtained by the insertion of a human OPN promoter sequence (−765 to 23) into the multiple cloning site of pGL-3 basic vector (Promega) expresses luciferase when transfected into animal cells. The pOPN1-luc was transfected into a human non-small cell lung cancer-derived cell line A549 together with pPUR (Clontech) that expresses a puromycin resistance gene (puromycin-N-acetyl-transferase gene), and then cells expressing luciferase which could grow a puromycin-supplemented medium were selected. The selected cells were named “A549/OPNluc cells” and used for observation of luciferase expression inhibitory effect under control of OPN promoter, as described below.
(§2) A test compound was added to a culture containing A549/OPNluc cells to observe its influence on the amount of luciferase expressed in the cells. Here, it can be considered that when the test compound has a cell cytotoxity or cell growth inhibitory effect, the total expression level of luciferase is reduced due to a reduction in the number of living cells that depends on the concentration of the test compound, and therefore the luciferase expression inhibitory effect of the test compound under control of OPN promoter cannot be properly evaluated. For this reason, WST assay for quantification of cell proliferation ability or cell viability by colorimetric measurement was firstly performed to determine IC50 (concentration for 50% inhibition of cell growth) of the test compound for cell growth. Then, luciferase activity measurement was performed to determine EC50 (concentration for 50% inhibition of luciferase expression) of the test compound for luciferase expression under control of OPN promoter.
A549/OPNluc cells were suspended in DMEM medium containing 10% fetal calf serum (FCS) and 1% penicillin/streptomycin (P/S) at 3×10^4 cells/mL to obtain a cell suspension, and then the cell suspension was dispensed into each well of a 96-well plate in an amount of 100 μL. In order to perform the assay in triplicate, wells were prepared for a control group, and 3 wells were prepared for each test compound-treated group at each concentration. After the dispensation, the 96-well plate was incubated in a CO2 incubator (at 37° C. and 5% CO2) for 24±4 hours.
The present compound was dissolved in dimethylsulfoxide (DMSO) to obtain a 50 mmol/L solution, and the compound solution was stored at −80° C. The compound solution was diluted with DMSO in 2-fold dilution series (usually, in the range of 0.31 mmol/L to 20 mmol/L) to prepare test compound solutions whose concentration varied by two fold for WST assay.
Each solution of only DMSO (control) and the diluted test compound (sample) was dispensed into each well containing the cell suspension in an amount of 0.5 μL (200-fold dilution). The solution in each well was mixed with a vortex mixer, and then the 96-well plate was incubated in a CO2 incubator (at 37° C. and 5% CO2) for 48±4 hours. Then, Premix WST-1 Reagent (TAKARA BIO INC.) was added in an amount of 10 μL to each well. The solution in each well was mixed with a vortex mixer, and then the 96-well plate was incubated at 37° C. and 5% CO2. After 60 minutes or 120 minutes, the absorbance values (450 nm) were measured with a microplate reader (Bio-Rad; Benchmark or Thermo Scientific; Varioskan Flash).
The absorbance values of the control wells and the sample wells at each concentration were input into an Excel file to determine the percentages of absorbance values of the sample wells at each concentration with to the average absorbance value of the control wells. From the determined values, a fitted curve was determined by the method of least squares to calculate IC50.

[1] = system: human OPN promoter (pOPN1-luc) in A549/OPNluc cells; test: Luciferase assay: luciferase expression under control of OPN promoter; assay type: cell-based
Text: as §1, §2
The same steps as in the above-mentioned WST assay were performed in which each solution of only DMSO (control) or the diluted test compound (sample) was added in an amount of 0.5 μL to each well containing the cell suspension to achieve 200-fold dilution, and the solution in each well was mixed with a vortex mixer, and the 96-well plate was incubated in a CO2 incubator (at 37° C. and 5% CO2) for 48±4 hours.
Luciferase Assay Substrate (hereinafter referred to as “LAS”) supplied in Luciferase Assay Systems (Promega: Cat #E1500) was dissolved in Luciferase Assay Buffer (LAB) to prepare a luciferase reagent. 5×Cell Culture Lysis Reagent (hereinafter referred to as “CCLR”) was diluted by 5 times with water to prepare 1×CCLR.
After the incubation for 48±4 hours, the medium in each well was completely removed, and 1×CCLR was dispensed into each well in an amount of 50 μL. The 96-well plate was allowed to stand at room temperature for 30 minutes, and then 1×CCLR in each well was used as an assay sample. The luciferase reagent (100 μL) was placed in a tube for chemiluminescence measurement, and the assay sample (20 μL) was added to the tube and mixed with the luciferase reagent to measure chemiluminescence (Relative Luminescence Intensity: RLU) using TB 20/20 (Promega) or GloMax 20/20 (Promega).
The RLU values of the control wells and the sample wells at each concentration were input into an Excel file, and the percentages of RLU values of the sample wells at each concentration to the average RLU value of the control wells were determined. From these values, a fitted curve was determined by the method of least squares to calculate EC50. Also, the percentages of RLU values of the sample wells at each concentration to the average RLU value of the control wells were divided by the percentages of absorbance values of the compounds in WST assay at the same concentrations as those of this assay (to the control), and a fitted curve was determined from the calculated values by the method of least squares to calculate corrected EC50.

[2] = Homo sapiens, A549, A549/OPNluc cells
[3] = Homo sapiens, A549, A549/OPNluc cells, 48±4 hours, read-out: EC50 (concentration for 50% inhibition of luciferase expression)
[4] = Homo sapiens, A549, EC50 corrected for decrease in viable cells (RLU % divided by WST %), read-out: corrected EC50

Nc1c(Oc2ccc(O)cc2)cccc1C(=O)CCNC(=O)c1ccc(O)cc1 [Compound 1, N-(3-(2-Amino-3-(4-hydroxyphenoxy)phenyl)-3-oxopropyl)-4-hydroxybenzamide]
IC50 (A549/OPNluc cells; [2]): 65.9 µM
EC50 [1, 3]: 17.1 µM
EC50 [1, 4]: 24.5 µM

O=C(NCCc1c[nH]c2c(Oc3ccc(O)cc3)cccc12)c1ccc(O)cc1 [Compound 2, 4-Hydroxy-N-(2-(7-(4-hydroxyphenoxy)-1H-indol-3-yl)ethyl)benzamide]
IC50 (A549/OPNluc cells; [2]): 51 µM
EC50 [1, 3]: 26.8 µM
EC50 [1, 4]: 60.3 µM

O=C(NCCC(=O)c1cccc(O)c1O)c1ccc(Oc2ccc(O)cc2)cc1 [Compound 3, N-(3-(2,3-Dihydroxyphenyl)-3-oxopropyl)-4-(4-hydroxyphenoxy)benzamide]
IC50 (A549/OPNluc cells; [2]): 32.5 µM
EC50 [1, 3]: 32.2 µM
EC50 [1, 4]: 103 µM

COc1ccc(C(=O)NCCC(=O)c2cccc(Oc3ccc(O)cc3)c2N)cc1 [Compound 4, N-(3-(2-Amino-3-(4-hydroxyphenoxy)phenyl)-3-oxopropyl)-4-methoxybenzamide]
IC50 (A549/OPNluc cells; [2]): 67.1 µM
EC50 [1, 3]: 27.6 µM
EC50 [1, 4]: 37 µM

COc1ccc(Oc2cccc(C(=O)CCNC(=O)c3ccc(OC)cc3)c2N)cc1 [Compound 5, N-(3-(2-Amino-3-(4-methoxyphenoxy)phenyl)-3-oxopropyl)-4-methoxybenzamide]
IC50 (A549/OPNluc cells; [2]): 64.9 µM
EC50 [1, 3]: 19.5 µM
EC50 [1, 4]: 22.6 µM

COc1cccc(C(=O)NCCC(=O)c2cccc(Oc3ccc(O)cc3)c2N)c1 [Compound 7, N-(3-(2-Amino-3-(4-hydroxyphenoxy)phenyl)-3-oxopropyl)-3-methoxybenzamide]
IC50 (A549/OPNluc cells; [2]): 63.3 µM
EC50 [1, 3]: 35.6 µM
EC50 [1, 4]: 43.7 µM

CC(=O)NCCC(=O)c1cccc(Oc2ccc(O)cc2)c1N [Compound 8, N-(3-(2-Amino-3-(4-hydroxyphenoxy)phenyl)-3-oxopropyl)-acetamide]
IC50 (A549/OPNluc cells; [2]): > 100 µM
EC50 [1, 3]: > 100 µM

Nc1c(Oc2ccc(O)cc2)cccc1C(=O)CCNC(=O)c1ccc(F)cc1 [Compound 9, N-(3-(2-Amino-3-(4-hydroxyphenoxy)phenyl)-3-oxopropyl)-4-fluorobenzamide]
IC50 (A549/OPNluc cells; [2]): 93.7 µM
EC50 [1, 3]: 41.5 µM
EC50 [1, 4]: 65.6 µM

Nc1c(Oc2ccc(O)cc2)cccc1C(=O)CCNC(=O)C1CCCCC1 [Compound 10, N-(3-(2-Amino-3-(4-hydroxyphenoxy)phenyl)-3-oxopropyl)-cyclohexanecarboxamide]
IC50 (A549/OPNluc cells; [2]): 52.8 µM
EC50 [1, 3]: 31.5 µM
EC50 [1, 4]: 41.7 µM

Nc1c(Oc2ccc(O)cc2)cccc1C(=O)CCNC(=O)C1CCOCC1 [Compound 11, N-(3-(2-Amino-3-(4-hydroxyphenoxy)phenyl)-3-oxopropyl)-(tetrahydro-2H-pyran-4-yl)-carboxamide]
IC50 (A549/OPNluc cells; [2]): 200 µM
EC50 [1, 3]: 166 µM

COc1cccc(C(=O)CCNC(=O)c2ccc(O)cc2)c1N [Compound 12, N-(3-(2-Amino-3-methoxyphenyl)-3-oxopropyl)-4-hydroxybenzamide]
IC50 (A549/OPNluc cells; [2]): > 200 µM
EC50 [1, 3]: > 200 µM

Nc1c(O)cccc1C(=O)CCNC(=O)c1ccc(O)cc1 [Compound 13, N-(3-(2-Amine-3-hydroxyphenyl)-3-oxopropyl)-4-hydroxybenzamide]
IC50 (A549/OPNluc cells; [2]): > 200 µM
EC50 [1, 3]: > 200 µM

Cc1ccc(Oc2cccc(C(=O)CCNC(=O)c3ccc(O)cc3)c2N)cc1 [Compound 14, N-(3-(2-Amino-3-(4-methylphenoxy)phenyl)-3-oxopropyl)-4-hydroxybenzamide]
IC50 (A549/OPNluc cells; [2]): 61.1 µM
EC50 [1, 3]: 5.6 µM
EC50 [1, 4]: 5 µM

Nc1c(Oc2ccc(C(F)(F)F)cc2)cccc1C(=O)CCNC(=O)c1ccc(O)cc1 [Compound 15, N-(3-(2-Amino-3-(4-(trifluoromethyl)phenoxy)phenyl)-3-oxopropyl)-4-hydroxybenzamide]
IC50 (A549/OPNluc cells; [2]): 35.4 µM
EC50 [1, 3]: 5.6 µM
EC50 [1, 4]: 5.3 µM

COc1ccc(Oc2cccc(C(=O)CCNC(=O)c3ccc(O)cc3)c2N)cc1OC [Compound 16, N-(3-(2-Amino-3-(3,4-dimethoxyphenoxy)phenyl)-3-oxopropyl)-4-hydroxybenzamide]
IC50 (A549/OPNluc cells; [2]): 34.9 µM
EC50 [1, 3]: 9.8 µM
EC50 [1, 4]: 12.5 µM

Nc1c(Oc2ccc(Cl)cc2)cccc1C(=O)CCNC(=O)c1ccc(O)cc1 [Compound 17, N-(3-(2-Amino-3-(4-chlorophenoxy)phenyl)-3-oxopropyl)-4-hydroxybenzamide]
IC50 (A549/OPNluc cells; [2]): 47.7 µM
EC50 [1, 3]: 3.7 µM
EC50 [1, 4]: 4.2 µM

O=C1NCCc2c1[nH]c1c(Oc3ccc(O)cc3)cccc21 [Compound 18, 8-(4-Hydroxyphenoxy)-1,2,3,4-tetrahydro-β-carboline-1-one]
IC50 (A549/OPNluc cells; [2]): 49.4 µM
EC50 [1, 3]: > 50 µM

CC(=O)Nc1ccc(C(=O)NCCC(=O)c2cccc(Oc3ccc(Cl)cc3)c2N)cc1 [Compound 20, N-(3-(2-amino-3-(4-chlorophenoxy)phenyl)-3-oxopropyl)-4-acetylaminobenzamide]
IC50 (A549/OPNluc cells; [2]): > 100 µM
EC50 [1, 3]: 16.3 µM
EC50 [1, 4]: 18 µM

COc1ccc(Oc2cccc(C(=O)NCCNC(=O)c3ccc(O)cc3)c2)cc1 [Compound 21, N-(2-(3-(4-Methoxyphenoxy)benzoylamino)ethyl)-4-hydroxybenzamide]
IC50 (A549/OPNluc cells; [2]): 95.9 µM
EC50 [1, 3]: 16.1 µM
EC50 [1, 4]: 17 µM

COc1ccc(Oc2ccccc2C(=O)NCCNC(=O)c2ccc(O)cc2)cc1 [Compound 22, N-(2-(2-(4-Methoxyphenoxy)benzoylamino)ethyl)-4-hydroxybenzamide]
IC50 (A549/OPNluc cells; [2]): > 100 µM
EC50 [1, 3]: 42.2 µM
EC50 [1, 4]: 50.4 µM

O=C(CCC(=O)Nc1cccc(Oc2ccc(Cl)cc2)c1)Nc1ccc(O)cc1 [Compound 23, N-(4-Hydroxyphenyl)-4-(3-(4-chlorophenoxy)phenylamino)-4-oxobutanamide]
IC50 (A549/OPNluc cells; A549/OPNluc cells): 87.3 µM
IC50 (A549/OPNluc cells; [2]): > 100 µM
EC50 ([1]; A549/OPNluc cells, 48±4 hours, read-out: EC50 (concentration for 50% inhibition of luciferase expression)): 40.6 µM
EC50 ([1]; EC50 corrected for decrease in viable cells (RLU % divided by WST %), read-out: corrected EC50): 50.9 µM
EC50 [1, 3]: 71.5 µM
EC50 [1, 4]: 82.8 µM

O=C(CCNC(=O)c1ccc(O)cc1)Nc1cccc(Oc2ccc(Cl)cc2)c1 [Compound 24, N-(3-(3-(4-Chlorophenoxy)phenylamino)-3-oxopropyl)-4-hydroxybenzamide]
IC50 (A549/OPNluc cells; [2]): 29.4 µM
EC50 [1, 3]: 7.5 µM
EC50 [1, 4]: 11.4 µM
